How the values were obtained:
[1] = test system: pome fruit, specifically apples and pears; assay: Applicant's experiments on floral development in the year after treatment with acylcyclohexanedione growth regulators; type: in vivo
Source text: Thus, D. Sugar, D. C. Elfving and E. A. Mielke report in Acta Hort. […] In the most extreme case, no floral development at all takes place in the year after the treatment.

[2] = test system: pear trees; conditions: cited from earlier work
[3] = test system: 12-year-old pear trees cv. "Conference" on BA rootstock; assay: Flowering behavior in pears after treatment with prohexadione-calcium and ethephon (inflorescence count about one year after first application); type: in vivo
Description: 1. Flowering Behavior in Pears after Treatment with Prohexadione-calcium and Ethephon
12-year-old pear trees cv. “Conference” on BA rootstock at two different locations were treated first with prohexadione-calcium alone and secondly with a combination of prohexadione-calcium and ethephon. To this end, 4 groups of 5 trees each, which were uniformly distributed in an orchard, were sprayed with an active-ingredient-comprising spray mixture to run-off point (approx. 1000 l/ha). Three applications at intervals of approximately one month were carried out at the first location. At the second location, prohexadione-calcium was applied four times to a part of the groups of trees and three times to another part, the application interval being in each case approximately two weeks. The combination of prohexadione-calcium and ethephon was applied twice, with in each case one application with prohexadione-calcium alone being carried out before and after the combined application. Approximately one year after the first application, the number of inflorescences of untreated trees, of those which have been treated exclusively with prohexadione-calcium and of trees which had been treated with a combination of prohexadione-calcium and ethephon were counted and compared with each other.

With O=C1CC(C(=O)O)CC(=O)C1=C(O)C1CC1 (centres unmarked) [trinexapac] the “Floral development in the year after the treatment” value [1] was “markedly reduced floral development”.

With CCOC(=O)C1CC(=O)C(=C(O)C2CC2)C(=O)C1 (centres unmarked) [trinexapac-ethyl] the “Floral development in the year after the treatment” value [1] was “markedly reduced floral development”.

For prohexadione-calcium [ProCa], the Subsequent flowering [2] is listed as “reduced subsequent flowering”, the “Flowering in the subsequent year, April 2003” value (“Flowering … April 2003” for short) ([3]; Location 1, ProCa alone 150 g/ha on 15th April, 14th May, 16th June 2002, total 450 g/ha, untreated 183) is listed as 137 number of inflorescences/tree and the “Flowering … April 2003” value ([3]; Location 2, ProCa alone four applications 120/87/87/95 g/ha (12th April, 3rd, 15th, 30th May 2002), total 389 g/ha, untreated 250) is listed as 157 number of inflorescences/tree. The “Flowering … April 2003” value ([3]; Location 2, ProCa alone three applications 120/87/87 g/ha (12th April, 3rd, 15th May 2002), total 294 g/ha, untreated 250) was 152 number of inflorescences/tree, the “Floral development in the year following the treatment (summary in words)” value ([3]; pear trees, Tables 1 and 2) was “reduced floral development” and the “Floral development in the year after the treatment” value [1] was “markedly reduced floral development”.

Source: patent US20060229208A1, “Use of acyl cyclohexandione derivatives in conjunction with ethephon for treating pomaceous fruit” (BASF AKTIENGESELLSCHAFT, priority 2003, published 2006)
